From US7435716B2, “Compounds pharmaceutical compositions and methods for treatment of bacteremia and/or septicemia” (Ramot At Tel Aviv University Ltd., priority 2001, dated 2008)
Where two headings read alike, the source gives them in different places.

Tests used:
[1] = test system: Klebsiella pneumoniae clinical isolates; assay: Sensitizing activity for clinical isolates (MIC of antibiotic); format: cell-based; settings: antibiotic alone
Method: (§1) Experiments for the determining the sensitizing activity of the conjugates were performed similar to those described for PMBN in previous studies (Ofek et al 1994). All conjugates were teted at 20 μg/ml to determine the MIC of the indicated antibiotic. Antibiotics were purchased from Sigma (novobiocin, erythromycin and gentamycin), Bristol (Amikin), Galaxo (Zinacef), and B.R.L (augmentin). Numbers in brackets indicate number of is strains tested.

[2] = test system: Pseudomonas aeruginosa clinical isolates; assay: as above; format: cell-based; settings: antibiotic alone
Method: as §1

[3] = test system: erythromycin resistant Klebsiella pneumoniae; assay: Mice protection assay; format: in vivo; settings: for Mice survival (Dead/Total): intraperitoneally; for protection of mice, in words: with erythromycin
Method: Sublethal dose of Klebsiella pneumoniae (2×10^5 cfu) were injected intreperitonially to mice. […] After additional 24 hours, the mice were treated once with half dose. Survival was followed daily for 7 days.
Polymyxin octapeptide conjugated with the tripeptide formyl Met-Leu-Phe (fMLF, SEQ ID NO:1) was assayed in combination with erythromycin for the ability to provide protection against Klebsiella pneumoniae infection in an in vivo infection model previously described (Ofek et al., 1994).

E. coli LPS = assay: Displacement assay of dansyl-PMBN from LPS; format: binding; settings: for ability to displace Dansyl-PMBN from LPS / affinity to LPS, in words: comparison with PMBN or polymyxin B; for IC50: inhibits 50% of initial fluorescence of 0.55 μM Dansyl-PMBN bound to E. coli-LPS, read-out: Peptides IC50
Method: To determine the binding of a given peptide to LPS, a displacement assay was performed in which 5 or 10 μl (1×10^−5-1×10^−3 M) of the tested peptide at desired concentrations were added at 5 minutes interval to a pre-equilibrated mixture of LPS solution (2 mL, 3 μg/mL, ˜2×10^−7 M) in HEPES buffer (5 mM, pH 7.2) and dansyl-PMBN (0.55 μM). The fluorescence intensity (excitation wavelength of 340 nm and emission wavelength of 485 nm) was recorded after each time interval. Each experiment was repeated 2-3 times. The percent inhibition of fluorescence intensity was plotted as a function of the peptide concentration from which the concentration required for maximal (Imax) and 50% (IC50) displacement of the dansyl-PMBN from LPS was derived.
Values were calculated as peptide's potency, at a concentration of 50 μg/ml, relatively to PMBN. IC50 values represent peptide concentrations that inhibits 50% of the initial fluorescence of 0.55 μM Dansyl-PMBN bound to E. coli-LPS.

E. coli = assay: Minimal inhibitory concentration (MIC) assay; format: cell-based; settings: compared with PMBN
Method: (§2) Gram-negative bacteria were grown on nutrient agar plates (Difco Laboratories, Detroit, Mich.) and kept at 4° C. An overnight culture in isotonic sensitest broth (ISB, Oxoid) was adjusted to 1×10^5 CFU/mL and inoculated into microtiter plate wells containing each 100 μL of a serial twofold dilution (1000-0.5 μg/mL) of the tested antibiotics in ISB. MIC was defined as the lowest concentration at which there was no visible bacterial growth after incubation for 20 hours at 37° C. The results are reported for 4-8 separate tests that varied by no more than one dilution.

Klebsiella pneumonia [4] = assay: Minimal inhibitory concentration (MIC) assay; format: cell-based; settings: compared with PMBN
Method: as §2

[5] = test system: phagocytosis of E. coli by human monocytes-derived macrophages; assay: Phagocytosis activity assay; format: cell-based
Method: (§3) The conjugates and the control peptides were incubated with E. coli (10^6 CFU/mL) prior to the contact with human monocytes-derived macrophages monolayer. After 30 minutes of phagocyte-bacteria encounter, the phagocytes were washed, lysed and the released bacteria allowed to grow for 4.5 hours at 37° C. The amount of trapped bacteria were calculated as a function of absorbency at 600 nm.
as §3, with “nm. fMLF by itself (10 μM) enhanced by 2.5 fold the phagocytosis comparing to the control (FIG. 2). […] Tuftsin-PMBN enhanced the phagocytosis by 3 folds comparing to the control.” for “nm.”

Gram-negative bacteria [6] = assay: Antimicrobial activity of the peptide per se (MIC assay); format: cell-based; settings: peptide alone
Method: as §2

Escherichia coli = assay: Sensitization assay (fold decrease in MIC of novobiocin); format: cell-based; settings: sensitization towards novobiocin, peptide 50 μg/ml, relative to PMBN
Method: (§4) Bacterial suspension (10 μL, 1×10^5 CFU) was inoculated into microtiter plate wells containing 100 μL of a serial two-fold dilution (1000-0.5 μg/mL) of novobiocin (Sigma) in ISB. To each well, 10 μL of the test peptide was added to a final concentration of 50 μg/mL. The fold decrease in MIC for novobiocin comparing wells with and without test peptides was calculated and designated as sensitizing activity. The relative sensitizing activity of the test peptide was calculated as percent of the sensitizing activity of 50 μg/mL pPMBN.

Klebsiella pneumonia [7] = assay: as above; format: cell-based; settings: sensitization towards novobiocin, peptide 50 μg/ml, relative to PMBN
Method: as §4

[8] = cited from earlier work
[9] = cited from earlier work; remark: listed apart in the source
[10] = Lam et al., 1986; cited from earlier work
[11] = test system: clinical isolates of gram-negative bacteria; settings: previous studies (Ofek et al, 1994); cited from earlier work
Gram-negative bacteria [12] = assay: Sensitization assay, bacterium not specified at the place; format: cell-based; settings: comparison with PMBN
Method: as §4

Compound: CC[C@H]1OC(=O)[C@H](C)[C@@H](O[C@H]2C[C@@](C)(OC)[C@@H](O)[C@H](C)O2)[C@H](C)[C@@H](O[C@@H]2O[C@H](C)C[C@H](N(C)C)[C@H]2O)[C@](C)(O)C[C@@H](C)C(=O)[C@H](C)[C@@H](O)[C@]1(C)O [Erythromycin]
- Range of MIC [1]: 100 to 200 µg/mL
- Range of MIC [2]: 200 µg/mL
- Mice survival (Dead/Total) ([3]; erythromycin 10 mg/Kg alone): 18/18
- protection of mice, in words [3]: all 18 mice who received erythromycin only died

Compound: CO[C@@H]1[C@@H](OC(N)=O)[C@@H](O)[C@H](Oc2ccc3c(O)c(NC(=O)c4ccc(O)c(CC=C(C)C)c4)c(=O)oc3c2C)OC1(C)C [Novobiocin]
- Range of MIC [2]: 62 to 1000 µg/mL

Compound: Formyl-Met-Leu-Phe-Thr-Dab-cyclo[Dab-Dab-dPhe-Leu-Dab-Dab-Thr] [fMLF-PMBN]
- ability to displace Dansyl-PMBN from LPS / affinity to LPS, in words (E. coli LPS): even lower than PMBN
- IC50 (E. coli LPS): 12000 nM
- effect of the added peptide on MIC of PMBN towards E. coli (E. coli): did not significantly reduce
- effect of the added peptide on MIC of PMBN towards Klebsiella pneumonia (Klebsiella pneumonia [4]): did not significantly reduce
- enhancement of phagocytosis, in words ([5]; 1 μM): enhanced the phagocytosis of the bacteria
- antimicrobial activity per se (Gram-negative bacteria [6]): did not have antimicrobial activity by it self
- antimicrobial activity per se (Gram-negative bacteria [6]; listed as PMBN-fMLF): no antimicrobial activity per se
- protection of mice, in words [3]: Almost complete protection
- peptides potency (%) Escherichia coli (Escherichia coli): 783%
- peptides potency (%) Klebsiella pneumonia (Klebsiella pneumonia [7]): 475%

Compound: Gentamycin
- Range of MIC [2]: 1000 µg/mL

Compound: Polymyxin B
- IC50 (E. coli LPS): 500 nM
- neuromuscular blockade, neurotoxic or nephrotoxic effects ([8]; rats, 3 mg/Kg body weight intravenously over a long period): all of which were observed
- Mice survival (Dead/Total) ([3]; 1.5 + 1.5 + 1.5 mg/Kg, no erythromycin): 3/18
- neuromuscular blockade, neurotoxic or nephrotoxic effects ([9]; dogs, 3 mg/Kg body weight intravenously over a long period): all of which were observed

Compound: Thr-Dab-cyclo[Dab-Dab-dPhe-Leu-Dab-Dab-Thr] [PMBN]
- IC50 (E. coli LPS): 4500 nM
- neuromuscular blockade, neurotoxic or nephrotoxic effects ([8]; rat, in vivo, iv, 3 mg/kg): did not cause neuromuscular blockade and neurotoxic or nephrotoxic effects
- dose that was not lethal (doses as high as) [10]: 200 mg/Kg body weight
- protection of mice, in words [3]: partial protection
- clinical isolates rendered more susceptible to novobiocin [11]: 53 out of 53
- neuromuscular blockade, neurotoxic or nephrotoxic effects ([9]; dog, in vivo, iv, 3 mg/kg): did not cause neuromuscular blockade and neurotoxic or nephrotoxic effects
- peptides potency (%) Escherichia coli (Escherichia coli): 100%
- peptides potency (%) Klebsiella pneumonia (Klebsiella pneumonia [7]): 100%

Compound: Thr-Lys-Pro-Arg-Thr-Dab-cyclo[Dab-Dab-dPhe-Leu-Dab-Dab-Thr] [Tuftsin-PMBN]
- ability to displace Dansyl-PMBN from LPS / affinity to LPS, in words (E. coli LPS): much higher potency then PMBN
- IC50 (E. coli LPS): 700 nM
- sensitizing activity, in words (Gram-negative bacteria [12]): increased ability to enhance the permeability of the bacterial outer membrane to novobiocin
- effect of the added peptide on MIC of PMBN towards E. coli (E. coli): did not significantly reduce
- effect of the added peptide on MIC of PMBN towards Klebsiella pneumonia (Klebsiella pneumonia [4]): did not significantly reduce
- enhancement of phagocytosis comparing to the control ([5]; concentration not given): 3 folds
- antimicrobial activity per se (Gram-negative bacteria [6]): did not have antimicrobial activity by it self
- antimicrobial activity per se (Gram-negative bacteria [6]; listed as PMBN-tuftsin): no antimicrobial activity per se
- peptides potency (%) Escherichia coli (Escherichia coli): 863%
- peptides potency (%) Klebsiella pneumonia (Klebsiella pneumonia [7]): 268%

Compound: formyl-Met-Leu-Phe [fMLF, reference compound]
- enhancement of phagocytosis comparing to the control ([5]; 10 μM): 2.5 fold
